Reference: PubChem BioAssay AID2060891 (Molecular Pharmacology Branch, DTP, NCI, 2025)

Test system: K98450-129-R-PDC complex spheroid growth, percent test/control
Assay: Anticancer human tumor K98450-129-R-PDC patient-derived colon adenocarcinoma cell line growth inhibition [RAS]
Conditions: for IC50: curve of first compound; for viability, T/C: stronger effect = lower value
Method in brief: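 Tumour cells grown as complex spheroids with HUVEC endothelial cells and mesenchymal stem cells, treated with RAS pathway inhibitor combinations. Each agent spans half-log steps from near clinical Cmax, or 10 microM where Cmax is unknown.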

[1] = second compound 0.0316 µM, first compound 0.0316 µM
[2] = second compound 0.0316 µM, first compound 0.1 µM
[3] = second compound 0.0316 µM, first compound 0.316 µM
[4] = second compound 0.0316 µM, first compound 1 µM
[5] = second compound 0.1 µM, first compound 0.0316 µM
[6] = second compound 0.1 µM, first compound 0.1 µM
[7] = second compound 0.1 µM, first compound 0.316 µM
[8] = second compound 0.1 µM, first compound 1 µM
[9] = second compound 0.316 µM, first compound 0.0316 µM
[10] = second compound 0.316 µM, first compound 0.1 µM
[11] = second compound 0.316 µM, first compound 0.316 µM
[12] = second compound 0.316 µM, first compound 1 µM
[13] = second compound 1 µM, first compound 0.0316 µM
[14] = second compound 1 µM, first compound 0.1 µM
[15] = second compound 1 µM, first compound 0.316 µM
[16] = second compound 1 µM, first compound 1 µM
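Note: spheroids exposed to agents for seven days before the viability readout.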
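Throughout, for viability, T/C: luminescence used as a proxy for viable cell amount.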

Structure (SMILES): CC(=O)OC12COC1CC(O)C1(C)C(=O)C(O)C3=C(C)C(OC(=O)C(O)C(NC(=O)OC(C)(C)C)c4ccccc4)CC(O)(C(OC(=O)c4ccccc4)C21)C3(C)C (centres undefined) + C=CC(=O)N1CCN(c2nc(OCC3CCCN3C)nc3c(F)c(-c4nc(N)cc(C)c4C(F)(F)F)c(Cl)cc23)C(C)C1
- IC50 (second compound 0.00316 µM): 270 nM
- IC50 (second compound 0.01 µM): 223 nM
- IC50 (second compound 0.0316 µM): 151 nM
- IC50 (second compound 0.1 µM): < 31.6 nM
- IC50 (second compound 0.316 µM): < 31.6 nM
- IC50 (second compound 1 µM): < 31.6 nM
- viability, T/C (second compound 0.00316 µM, first compound 0.0316 µM): 91.4%
- viability, T/C (second compound 0.00316 µM, first compound 0.1 µM): 83.6%
- viability, T/C (second compound 0.00316 µM, first compound 0.316 µM): 44.3%
- viability, T/C (second compound 0.00316 µM, first compound 1 µM): 27.3%
- viability, T/C (second compound 0.00316 µM, first compound 3.16 µM): 23.6%
- viability, T/C (second compound 0.00316 µM, first compound 10 µM): 22.6%
- viability, T/C (second compound 0.01 µM, first compound 0.0316 µM): 88.2%
- viability, T/C (second compound 0.01 µM, first compound 0.1 µM): 83.1%
- viability, T/C (second compound 0.01 µM, first compound 0.316 µM): 35.4%
- viability, T/C (second compound 0.01 µM, first compound 1 µM): 22.8%
- viability, T/C (second compound 0.01 µM, first compound 3.16 µM): 20.8%
- viability, T/C (second compound 0.01 µM, first compound 10 µM): 19.8%
- viability, T/C [1]: 71.7%
- viability, T/C [2]: 62.4%
- viability, T/C [3]: 27.7%
- viability, T/C [4]: 17.4%
- viability, T/C (second compound 0.0316 µM, first compound 3.16 µM): 16.7%
- viability, T/C (second compound 0.0316 µM, first compound 10 µM): 15.6%
- viability, T/C [5]: 50%
- viability, T/C [6]: 38.4%
- viability, T/C [7]: 16.3%
- viability, T/C [8]: 14.6%
- viability, T/C (second compound 0.1 µM, first compound 3.16 µM): 14%
- viability, T/C (second compound 0.1 µM, first compound 10 µM): 14.3%
- viability, T/C [9]: 35.4%
- viability, T/C [10]: 26.4%
- viability, T/C [11]: 14%
- viability, T/C [12]: 12.4%
- viability, T/C (second compound 0.316 µM, first compound 3.16 µM): 12.4%
- viability, T/C (second compound 0.316 µM, first compound 10 µM): 12.2%
- viability, T/C [13]: 26.3%
- viability, T/C [14]: 18.5%
- viability, T/C [15]: 13.7%
- viability, T/C [16]: 12.7%
- viability, T/C (second compound 1 µM, first compound 3.16 µM): 12.4%
- viability, T/C (second compound 1 µM, first compound 10 µM): 13.4%

Structure (SMILES): O=C(c1ccc(F)c(F)c1Nc1ccc(I)cc1F)N1CC(O)([C@@H]2CCCCN2)C1 + C#Cc1c(F)ccc2cc(O)cc(-c3ncc4c(N5CC6CCC(C5)N6)nc(OCC56CCCN5CC(F)C6)nc4c3F)c12
- IC50 (second compound 0.0316 µM): 187 nM
- IC50 (second compound 0.1 µM): 185 nM
- IC50 (second compound 0.316 µM): 170 nM
- IC50 (second compound 1 µM): 171 nM
- IC50 (second compound 3.16 µM): 159 nM
- IC50 (second compound 10 µM): 125 nM
- viability, T/C (second compound 0.0316 µM, first compound 0.00316 µM): 108%
- viability, T/C (second compound 0.0316 µM, first compound 0.01 µM): 105%
- viability, T/C [1]: 90.7%
- viability, T/C [2]: 87.1%
- viability, T/C [3]: 19.3%
- viability, T/C [4]: 3.6%
- viability, T/C (second compound 0.1 µM, first compound 0.00316 µM): 113%
- viability, T/C (second compound 0.1 µM, first compound 0.01 µM): 100%
- viability, T/C [5]: 107%
- viability, T/C [6]: 84.3%
- viability, T/C [7]: 20.2%
- viability, T/C [8]: 4.03%
- viability, T/C (second compound 0.316 µM, first compound 0.00316 µM): 109%
- viability, T/C (second compound 0.316 µM, first compound 0.01 µM): 106%
- viability, T/C [9]: 95.6%
- viability, T/C [10]: 77.7%
- viability, T/C [11]: 18.3%
- viability, T/C [12]: 4.22%
- viability, T/C (second compound 1 µM, first compound 0.00316 µM): 105%
- viability, T/C (second compound 1 µM, first compound 0.01 µM): 99.8%
- viability, T/C [13]: 93.2%
- viability, T/C [14]: 77.3%
- viability, T/C [15]: 19.3%
- viability, T/C [16]: 3.49%
- viability, T/C (second compound 3.16 µM, first compound 0.00316 µM): 97%
- viability, T/C (second compound 3.16 µM, first compound 0.01 µM): 89.7%
- viability, T/C (second compound 3.16 µM, first compound 0.0316 µM): 91.3%
- viability, T/C (second compound 3.16 µM, first compound 0.1 µM): 73.1%
- viability, T/C (second compound 3.16 µM, first compound 0.316 µM): 15.6%
- viability, T/C (second compound 3.16 µM, first compound 1 µM): 4.86%
- viability, T/C (second compound 10 µM, first compound 0.00316 µM): 86%
- viability, T/C (second compound 10 µM, first compound 0.01 µM): 82.1%
- viability, T/C (second compound 10 µM, first compound 0.0316 µM): 70.5%
- viability, T/C (second compound 10 µM, first compound 0.1 µM): 60.7%
- viability, T/C (second compound 10 µM, first compound 0.316 µM): 12.1%
- viability, T/C (second compound 10 µM, first compound 1 µM): 3.34%
